From patent US20170190671A1, “BIS(ARYL)CATECHOL DERIVATIVES AS HERBICIDES” (E I DU PONT DE NEMOURS AND COMPANY, priority 2014, published 2017)

Experiments:
Format in all cases: in vivo
[1] = test system: soybean (Glycine max); experiment: Test C postemergence; details: Glycine max, post-emergence, Postemergence, scale 0 to 100, read-out: Plant response rating, Soybean
Outline: (§1)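 Seeded loam-sand soil (preemergence) or young potted plants of 2-18 cm (postemergence) received test chemical formulated with surfactant in a non-phytotoxic solvent. Pots were kept in the greenhouse for 13-15 days before a visual 0-100 control rating relative to controls.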

[2] = test system: galium (catchweed bedstraw, Galium aparine); experiment: Test C postemergence; details: Galium, post-emergence, 336 h, Postemergence, scale 0 to 100, read-out: Plant response rating, Galium
Outline: as §1

[3] = test system: lambsquarters (Chenopodium album); experiment: Test C postemergence; details: Chenopodium album, post-emergence, 336 h, Postemergence, scale 0 to 100, read-out: Plant response rating, Lambsquarters
Outline: as §1

[4] = test system: corn (Zea mays); experiment: Test C postemergence; details: Zea mays, post-emergence, 336 h, Postemergence, scale 0 to 100
Outline: as §1

[5] = test system: waterhemp (common waterhemp, Amaranthus rudis); experiment: Test C postemergence; details: Amaranthus tuberculatus, post-emergence, Postemergence, scale 0 to 100, read-out: Plant response rating, Waterhemp
Outline: as §1

[6] = test system: ragweed (common ragweed, Ambrosia elatior); experiment: Test C postemergence; details: Ambrosia artemisiifolia, post-emergence, 336 h, Postemergence, scale 0 to 100, read-out: Plant response rating, Ragweed
Outline: as §1

[7] = test system: soybean (Glycine max); experiment: Test C preemergence; details: Glycine max, pre-emergence, scale 0 to 100, read-out: Plant response rating, Soybean
Outline: as §1

[8] = test system: large (Lg) crabgrass (Digitaria sanguinalis); experiment: Test C preemergence; details: Digitaria sanguinalis, pre-emergence, 336 h, scale 0 to 100, read-out: Plant response rating, Crabgrass, Large
Outline: as §1

[9] = test system: blackgrass (Alopecurus myosuroides); experiment: Test C preemergence; details: Alopecurus myosuroides, pre-emergence, 336 h, scale 0 to 100, read-out: Plant response rating, Blackgrass
Outline: as §1

[10] = test system: Italian ryegrass (Lolium multiflorum); experiment: Test C preemergence; details: Lolium multiflorum, pre-emergence, 336 h, scale 0 to 100, read-out: Plant response rating, Ryegrass, Italian
Outline: as §1

[11] = test system: winter wheat (Triticum aestivum); experiment: Test C preemergence; details: Triticum aestivum, pre-emergence, 336 h, scale 0 to 100, read-out: Plant response rating, Wheat
Outline: as §1

[12] = test system: pigweed (Amaranthus retroflexus); experiment: Test C preemergence; details: Amaranthus retroflexus, pre-emergence, 336 h, scale 0 to 100, read-out: Plant response rating, Pigweed
Outline: as §1

[13] = test system: yellow nutsedge (Cyperus esculentus); experiment: Test C preemergence; details: Cyperus, pre-emergence, 336 h, scale 0 to 100, read-out: Plant response rating, Nutsedge, Yellow
Outline: as §1

[14] = test system: lambsquarters (Chenopodium album); experiment: Test C preemergence; details: Chenopodium album, pre-emergence, 336 h, scale 0 to 100, read-out: Plant response rating, Lambsquarters
Outline: as §1

[15] = test system: corn (Zea mays); experiment: Test C preemergence; details: Zea mays, pre-emergence, 336 h, scale 0 to 100
Outline: as §1

[16] = test system: waterhemp (common waterhemp, Amaranthus rudis); experiment: Test C preemergence; details: Amaranthus tuberculatus, pre-emergence, scale 0 to 100, read-out: Plant response rating, Waterhemp
Outline: as §1

[17] = test system: barnyardgrass (Echinochloa crus-galli); experiment: Test C preemergence; details: Echinochloa crus-galli, pre-emergence, read-out: Plant response rating, Barnyardgrass
Outline: as §1

[18] = test system: johnsongrass (Sorghum halepense); experiment: Test C preemergence; details: Sorghum halepense, pre-emergence, 336 h, scale 0 to 100, read-out: Plant response rating, Johnsongrass
Outline: as §1

[19] = test system: giant foxtail (Setaria faberii); experiment: Test C preemergence; details: Setaria faberi, pre-emergence, 336 h, scale 0 to 100, read-out: Plant response rating, Foxtail, Giant
Outline: as §1

[20] = test system: morningglory (Ipomoea coccinea); experiment: Test C preemergence; details: Ipomoea, pre-emergence, 336 h, scale 0 to 100, read-out: Plant response rating, Morningglory
Outline: as §1

[21] = test system: velvetleaf (Abutilon theophrasti); experiment: Test C preemergence; details: Abutilon theophrasti, pre-emergence, scale 0 to 100, read-out: Plant response rating, Velvetleaf
Outline: as §1

[22] = test system: oilseed rape (Brassica napus); experiment: Test C preemergence; details: Brassica napus, pre-emergence, scale 0 to 100, read-out: Plant response rating, Oilseed Rape
Outline: as §1

FC(F)c1cccc(Oc2ncc(Cl)cn2)c1Oc1ncc(Cl)cn1 [Compound 46, 2,2′-[[3-(difluoromethyl)-1,2-phenylene]bis(oxy)]bis[5-chloropyrimidine]]
plant injury at 31 g/ha ([1]; 31 g ai/ha): 65%
plant injury at 62 g/ha ([1]; 62 g ai/ha): 75%
plant injury at 125 g/ha ([1]; 125 g ai/ha): 80%
pest or weed control at 16 g/ha ([2]; 16 g ai/ha): 60%
pest or weed control at 31 g/ha ([2]; 31 g ai/ha): 60%
pest or weed control at 62 g/ha ([2]; 62 g ai/ha): 60%
pest or weed control at 125 g/ha ([2]; 125 g ai/ha): 65%
pest or weed control at 16 g/ha ([3]; 16 g ai/ha): 55%
pest or weed control at 31 g/ha ([3]; 31 g ai/ha): 70%
pest or weed control at 62 g/ha ([3]; 62 g ai/ha): 85%
pest or weed control at 125 g/ha ([3]; 125 g ai/ha): 98%
Corn plant response rating (crop injury, 0 = no effect, 100 = complete kill) at 16 g/ha ([4]; 16 g ai/ha): 5%
Corn plant response rating (crop injury, 0 = no effect, 100 = complete kill) at 31 g/ha ([4]; 31 g ai/ha): 5%
Corn plant response rating (crop injury, 0 = no effect, 100 = complete kill) at 62 g/ha ([4]; 62 g ai/ha): 5%
Corn plant response rating (crop injury, 0 = no effect, 100 = complete kill) at 125 g/ha ([4]; 125 g ai/ha): 10%
pest or weed control at 31 g/ha ([5]; 31 g ai/ha): 50%
pest or weed control at 62 g/ha ([5]; 62 g ai/ha): 70%
pest or weed control at 125 g/ha ([5]; 125 g ai/ha): 5%
pest or weed control at 31 g/ha ([6]; 31 g ai/ha): 50%
pest or weed control at 62 g/ha ([6]; 62 g ai/ha): 65%
pest or weed control at 125 g/ha ([6]; 125 g ai/ha): 95%
plant injury at 31 g/ha ([7]; 31 g ai/ha, preemergence): 40%
plant injury at 62 g/ha ([7]; 62 g ai/ha, preemergence): 65%
plant injury at 125 g/ha ([7]; 125 g ai/ha, preemergence): 95%
plant injury at 16 g/ha ([7]; Preemergence, 16 g ai/ha): 10%
pest or weed control at 31 g/ha ([8]; 31 g ai/ha, preemergence): 100%
pest or weed control at 62 g/ha ([8]; 62 g ai/ha, preemergence): 100%
pest or weed control at 125 g/ha ([8]; 125 g ai/ha, preemergence): 100%
pest or weed control at 16 g/ha ([8]; Preemergence, 16 g ai/ha): 100%
pest or weed control at 31 g/ha ([9]; 31 g ai/ha, preemergence): 70%
pest or weed control at 62 g/ha ([9]; 62 g ai/ha, preemergence): 95%
pest or weed control at 125 g/ha ([9]; 125 g ai/ha, preemergence): 95%
pest or weed control at 16 g/ha ([9]; Preemergence, 16 g ai/ha): 0%
pest or weed control at 31 g/ha ([10]; 31 g ai/ha, preemergence): 25%
pest or weed control at 62 g/ha ([10]; 62 g ai/ha, preemergence): 95%
pest or weed control at 125 g/ha ([10]; 125 g ai/ha, preemergence): 100%
pest or weed control at 16 g/ha ([10]; Preemergence, 16 g ai/ha): 0%
plant injury at 31 g/ha ([11]; 31 g ai/ha, preemergence): 5%
plant injury at 62 g/ha ([11]; 62 g ai/ha, preemergence): 5%
plant injury at 125 g/ha ([11]; 125 g ai/ha, preemergence): 50%
plant injury at 16 g/ha ([11]; Preemergence, 16 g ai/ha): 0%
pest or weed control at 31 g/ha ([12]; 31 g ai/ha, preemergence): 100%
pest or weed control at 62 g/ha ([12]; 62 g ai/ha, preemergence): 100%
pest or weed control at 125 g/ha ([12]; 125 g ai/ha, preemergence): 100%
pest or weed control at 16 g/ha ([12]; Preemergence, 16 g ai/ha): 20%
pest or weed control at 31 g/ha ([13]; 31 g ai/ha, preemergence): 35%
pest or weed control at 62 g/ha ([13]; 62 g ai/ha, preemergence): 55%
pest or weed control at 125 g/ha ([13]; 125 g ai/ha, preemergence): 80%
pest or weed control at 16 g/ha ([13]; Preemergence, 16 g ai/ha): 0%
pest or weed control at 31 g/ha ([14]; 31 g ai/ha, preemergence): 100%
pest or weed control at 62 g/ha ([14]; 62 g ai/ha, preemergence): 100%
pest or weed control at 125 g/ha ([14]; 125 g ai/ha, preemergence): 100%
pest or weed control at 16 g/ha ([14]; Preemergence, 16 g ai/ha): 75%
Corn plant response rating (crop injury, 0 = no effect, 100 = complete kill) at 31 g/ha ([15]; 31 g ai/ha, preemergence): 25%
Corn plant response rating (crop injury, 0 = no effect, 100 = complete kill) at 62 g/ha ([15]; 62 g ai/ha, preemergence): 25%
Corn plant response rating (crop injury, 0 = no effect, 100 = complete kill) at 125 g/ha ([15]; 125 g ai/ha, preemergence): 90%
Corn plant response rating (crop injury, 0 = no effect, 100 = complete kill) at 16 g/ha ([15]; Preemergence, 16 g ai/ha): 10%
pest or weed control at 31 g/ha ([16]; 31 g ai/ha, preemergence): 100%
pest or weed control at 62 g/ha ([16]; 62 g ai/ha, preemergence): 100%
pest or weed control at 125 g/ha ([16]; 125 g ai/ha, preemergence): 100%
pest or weed control at 16 g/ha ([16]; Preemergence, 16 g ai/ha): 75%
pest or weed control at 31 g/ha ([17]; 31 g ai/ha, preemergence, scale 0 to 100): 70%
pest or weed control at 62 g/ha ([17]; 62 g ai/ha, preemergence, scale 0 to 100): 100%
pest or weed control at 125 g/ha ([17]; 125 g ai/ha, preemergence, scale 0 to 100): 100%
pest or weed control at 16 g/ha ([17]; Preemergence, 16 g ai/ha, scale 0 to 100 (0 no effect, 100 complete control)): 15%
pest or weed control at 31 g/ha ([18]; 31 g ai/ha, preemergence): 40%
pest or weed control at 62 g/ha ([18]; 62 g ai/ha, preemergence): 75%
pest or weed control at 125 g/ha ([18]; 125 g ai/ha, preemergence): 100%
pest or weed control at 16 g/ha ([18]; Preemergence, 16 g ai/ha): 5%
pest or weed control at 31 g/ha ([19]; 31 g ai/ha, preemergence): 100%
pest or weed control at 62 g/ha ([19]; 62 g ai/ha, preemergence): 100%
pest or weed control at 125 g/ha ([19]; 125 g ai/ha, preemergence): 100%
pest or weed control at 16 g/ha ([19]; Preemergence, 16 g ai/ha): 75%
pest or weed control at 31 g/ha ([20]; 31 g ai/ha, preemergence): 90%
pest or weed control at 62 g/ha ([20]; 62 g ai/ha, preemergence): 80%
pest or weed control at 125 g/ha ([20]; 125 g ai/ha, preemergence): 100%
pest or weed control at 16 g/ha ([20]; Preemergence, 16 g ai/ha): 20%
pest or weed control at 31 g/ha ([21]; 31 g ai/ha, preemergence): 100%
pest or weed control at 62 g/ha ([21]; 62 g ai/ha, preemergence): 95%
pest or weed control at 125 g/ha ([21]; 125 g ai/ha, preemergence): 100%
pest or weed control at 16 g/ha ([21]; Preemergence, 16 g ai/ha): 25%
plant injury at 31 g/ha ([22]; 31 g ai/ha, preemergence): 90%
plant injury at 62 g/ha ([22]; 62 g ai/ha, preemergence): 98%
plant injury at 125 g/ha ([22]; 125 g ai/ha, preemergence): 100%
plant injury at 16 g/ha ([22]; Preemergence, 16 g ai/ha): 65%
